# Source: paper PMC10178848, “Modulating fast skeletal muscle contraction protects skeletal muscle in animal models of Duchenne muscular dystrophy” (The Journal of Clinical Investigation, 2023)
# Read-outs that look alike come from different tables or passages of the source.
# What was measured:
# [1] = molecular target: T1, ROCK2 (Homo sapiens, UniProt O75116); assay: KINOMEscan scanEDGE; assay type: binding; settings: 20 uM
# T1 construct: purchased Eurofins DiscoverX (KINOMEscan; SAFETYscan E/IC50 ELECT)
# [2] = molecular target: T2, nAChR(a4/b2) (Homo sapiens, UniProt P17787+P43681); assay: SAFETYscan Ion Channel; assay type: cell-based; design: dose or concentration left out as unconfirmed
# T2 construct: purchased Eurofins DiscoverX (KINOMEscan; SAFETYscan E/IC50 ELECT)
# T2 sequence (P43681 29-627 limits assumed): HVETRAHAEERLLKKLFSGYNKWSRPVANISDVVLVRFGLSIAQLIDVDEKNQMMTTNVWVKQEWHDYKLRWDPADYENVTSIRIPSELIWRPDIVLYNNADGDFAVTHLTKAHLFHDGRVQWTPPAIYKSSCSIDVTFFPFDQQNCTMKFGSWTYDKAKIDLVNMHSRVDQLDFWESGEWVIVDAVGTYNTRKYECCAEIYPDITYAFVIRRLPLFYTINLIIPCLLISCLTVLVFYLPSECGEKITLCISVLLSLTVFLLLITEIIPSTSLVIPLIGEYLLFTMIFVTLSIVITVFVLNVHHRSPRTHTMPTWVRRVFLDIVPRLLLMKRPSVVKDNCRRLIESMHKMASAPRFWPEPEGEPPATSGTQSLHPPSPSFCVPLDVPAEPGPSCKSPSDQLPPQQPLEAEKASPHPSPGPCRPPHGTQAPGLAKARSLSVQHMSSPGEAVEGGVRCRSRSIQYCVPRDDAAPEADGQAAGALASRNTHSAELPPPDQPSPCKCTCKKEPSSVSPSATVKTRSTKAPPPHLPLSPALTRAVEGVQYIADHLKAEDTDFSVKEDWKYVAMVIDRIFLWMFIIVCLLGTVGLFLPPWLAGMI
# T2 sequence (P17787 26-502): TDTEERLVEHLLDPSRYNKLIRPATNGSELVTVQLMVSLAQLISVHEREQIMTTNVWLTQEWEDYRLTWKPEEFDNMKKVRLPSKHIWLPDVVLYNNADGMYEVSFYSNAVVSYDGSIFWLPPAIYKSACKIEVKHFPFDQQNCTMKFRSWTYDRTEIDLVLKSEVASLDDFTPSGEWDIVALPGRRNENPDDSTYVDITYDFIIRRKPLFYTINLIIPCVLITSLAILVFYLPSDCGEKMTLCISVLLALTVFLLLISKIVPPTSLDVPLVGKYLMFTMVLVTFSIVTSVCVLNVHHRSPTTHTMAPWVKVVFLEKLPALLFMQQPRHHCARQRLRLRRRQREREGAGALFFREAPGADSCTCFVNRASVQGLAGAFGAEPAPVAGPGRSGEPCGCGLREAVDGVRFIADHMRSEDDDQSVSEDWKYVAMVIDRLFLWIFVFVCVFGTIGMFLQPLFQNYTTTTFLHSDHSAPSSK
# Method: (§1) The specificity of EDG-5506 for fast skeletal myosin over other, unrelated proteins was confirmed using two off-target binding and activity screens. […] A second off-target panel (SAFETYscan E/IC50 ELECT, Eurofins DiscoverX) tested in vitro enzyme activity against 78 proteins, including GPCR, ion channel, kinases, nuclear hormone receptors, and transporters. In all assays, the IC50 of EDG-5506 was more than 10 μM (Supplemental Data File 1).
# [3] = molecular target: T3, HTR3A (Homo sapiens, UniProt P46098); assay: SAFETYscan Ion Channel; assay type: cell-based; design: dose or concentration left out as unconfirmed
# T3 construct: purchased Eurofins DiscoverX (KINOMEscan; SAFETYscan E/IC50 ELECT)
# T3 sequence (P46098 24-478): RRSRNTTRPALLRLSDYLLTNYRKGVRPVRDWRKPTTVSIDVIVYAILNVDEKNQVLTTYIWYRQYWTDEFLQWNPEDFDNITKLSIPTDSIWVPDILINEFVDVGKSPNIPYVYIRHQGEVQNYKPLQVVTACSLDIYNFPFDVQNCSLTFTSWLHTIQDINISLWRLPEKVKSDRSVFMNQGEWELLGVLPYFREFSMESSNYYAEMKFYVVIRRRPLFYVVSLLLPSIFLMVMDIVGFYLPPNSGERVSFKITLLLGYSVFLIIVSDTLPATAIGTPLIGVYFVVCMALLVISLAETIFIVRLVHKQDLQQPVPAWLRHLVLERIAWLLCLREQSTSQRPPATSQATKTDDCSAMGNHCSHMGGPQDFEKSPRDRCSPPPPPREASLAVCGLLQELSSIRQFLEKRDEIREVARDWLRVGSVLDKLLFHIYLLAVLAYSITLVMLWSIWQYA
# Method: as §1
# [4] = molecular target: T4, CAV1.2 (Homo sapiens, UniProt Q13936); assay: SAFETYscan Ion Channel; assay type: cell-based; design: dose or concentration left out as unconfirmed; settings: read-out: Max Response (%) (Agonist)
# T4 construct: purchased Eurofins DiscoverX (KINOMEscan; SAFETYscan E/IC50 ELECT)
# Method: as §1
# [5] = molecular target: T5, NAV1.5 (Homo sapiens, UniProt Q14524); assay: SAFETYscan Ion Channel; assay type: cell-based; design: dose or concentration left out as unconfirmed; settings: read-out: Max Response (%) (Antagonist)
# T5 construct: purchased Eurofins DiscoverX (KINOMEscan; SAFETYscan E/IC50 ELECT)
# Method: as §1
# [6] = molecular target: T6, KvLQT1/minK (Homo sapiens, UniProt P51787); assay: SAFETYscan Ion Channel; assay type: cell-based; design: dose or concentration left out as unconfirmed
# T6 construct: purchased Eurofins DiscoverX (KINOMEscan; SAFETYscan E/IC50 ELECT)
# Method: as §1
# [7] = molecular target: T7, hERG (Homo sapiens, UniProt Q12809); assay: SAFETYscan Ion Channel; assay type: cell-based; design: dose or concentration left out as unconfirmed; settings: read-out: Max Response (%) (Agonist)
# T7 construct: purchased Eurofins DiscoverX (KINOMEscan; SAFETYscan E/IC50 ELECT)
# Method: as §1
# [8] = molecular target: T8, NMDAR (1A/2B) (Homo sapiens, UniProt Q05586+Q13224); assay: SAFETYscan Ion Channel; assay type: cell-based; design: dose or concentration left out as unconfirmed
# T8 construct: purchased Eurofins DiscoverX (KINOMEscan; SAFETYscan E/IC50 ELECT)
# T8 sequence (Q13224 27-1484, other chains not shown): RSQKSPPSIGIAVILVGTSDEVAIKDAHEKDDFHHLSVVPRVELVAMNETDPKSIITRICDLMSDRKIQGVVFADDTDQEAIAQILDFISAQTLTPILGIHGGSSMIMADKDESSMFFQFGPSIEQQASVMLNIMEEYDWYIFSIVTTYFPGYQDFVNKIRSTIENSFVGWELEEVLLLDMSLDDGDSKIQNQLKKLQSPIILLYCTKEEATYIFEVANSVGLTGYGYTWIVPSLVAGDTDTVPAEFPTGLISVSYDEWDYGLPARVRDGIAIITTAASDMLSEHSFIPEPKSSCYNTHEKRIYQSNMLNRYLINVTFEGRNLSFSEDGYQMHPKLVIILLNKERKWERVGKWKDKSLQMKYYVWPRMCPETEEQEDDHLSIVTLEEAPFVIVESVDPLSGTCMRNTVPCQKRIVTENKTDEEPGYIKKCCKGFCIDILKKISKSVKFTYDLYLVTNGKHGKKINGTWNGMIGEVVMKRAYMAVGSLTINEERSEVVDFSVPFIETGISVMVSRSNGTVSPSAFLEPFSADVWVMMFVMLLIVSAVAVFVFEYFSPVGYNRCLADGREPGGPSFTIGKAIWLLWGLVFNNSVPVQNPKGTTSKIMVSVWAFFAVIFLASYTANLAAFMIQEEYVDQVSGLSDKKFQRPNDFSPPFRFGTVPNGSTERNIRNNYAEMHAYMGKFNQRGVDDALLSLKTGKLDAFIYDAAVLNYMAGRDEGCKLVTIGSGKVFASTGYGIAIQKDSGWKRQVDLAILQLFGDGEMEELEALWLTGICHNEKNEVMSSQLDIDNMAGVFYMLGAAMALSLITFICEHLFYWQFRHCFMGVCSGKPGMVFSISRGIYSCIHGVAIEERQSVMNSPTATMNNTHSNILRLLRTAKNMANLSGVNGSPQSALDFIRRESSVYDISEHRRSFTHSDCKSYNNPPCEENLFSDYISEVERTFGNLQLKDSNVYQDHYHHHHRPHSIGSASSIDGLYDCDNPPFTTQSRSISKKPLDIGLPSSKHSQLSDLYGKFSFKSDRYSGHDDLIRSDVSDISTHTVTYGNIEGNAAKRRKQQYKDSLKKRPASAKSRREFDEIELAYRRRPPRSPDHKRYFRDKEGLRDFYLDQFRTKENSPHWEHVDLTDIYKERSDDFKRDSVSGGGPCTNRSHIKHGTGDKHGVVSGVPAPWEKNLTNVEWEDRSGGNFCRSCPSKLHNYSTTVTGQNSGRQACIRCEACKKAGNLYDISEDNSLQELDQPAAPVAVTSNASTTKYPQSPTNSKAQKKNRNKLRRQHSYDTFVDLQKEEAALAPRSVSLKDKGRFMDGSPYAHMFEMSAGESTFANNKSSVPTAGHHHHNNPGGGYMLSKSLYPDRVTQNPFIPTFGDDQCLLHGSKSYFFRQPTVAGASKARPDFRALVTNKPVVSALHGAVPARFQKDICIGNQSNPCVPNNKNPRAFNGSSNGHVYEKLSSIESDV
# Method: as §1
# [9] = molecular target: T9, AURKB (Homo sapiens, UniProt Q96GD4); assay: KINOMEscan scanEDGE; assay type: binding; settings: 20 uM
# T9 construct: purchased Eurofins DiscoverX (KINOMEscan; SAFETYscan E/IC50 ELECT)
# T9 sequence (Q96GD4 whole entry): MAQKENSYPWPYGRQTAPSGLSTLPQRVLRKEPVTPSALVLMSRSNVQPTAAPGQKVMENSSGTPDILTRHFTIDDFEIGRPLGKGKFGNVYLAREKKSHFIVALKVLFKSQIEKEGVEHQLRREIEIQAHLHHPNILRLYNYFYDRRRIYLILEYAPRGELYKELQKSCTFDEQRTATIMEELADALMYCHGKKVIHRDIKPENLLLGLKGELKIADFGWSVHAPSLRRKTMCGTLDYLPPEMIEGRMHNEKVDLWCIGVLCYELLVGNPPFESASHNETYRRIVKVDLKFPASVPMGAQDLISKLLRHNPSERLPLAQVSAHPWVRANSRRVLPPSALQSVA
# [10] = molecular target: T10, ERK1 (Homo sapiens, UniProt P27361); assay: KINOMEscan scanEDGE; assay type: binding; settings: 20 uM
# T10 construct: purchased Eurofins DiscoverX (KINOMEscan; SAFETYscan E/IC50 ELECT)
# T10 sequence (P27361 whole entry): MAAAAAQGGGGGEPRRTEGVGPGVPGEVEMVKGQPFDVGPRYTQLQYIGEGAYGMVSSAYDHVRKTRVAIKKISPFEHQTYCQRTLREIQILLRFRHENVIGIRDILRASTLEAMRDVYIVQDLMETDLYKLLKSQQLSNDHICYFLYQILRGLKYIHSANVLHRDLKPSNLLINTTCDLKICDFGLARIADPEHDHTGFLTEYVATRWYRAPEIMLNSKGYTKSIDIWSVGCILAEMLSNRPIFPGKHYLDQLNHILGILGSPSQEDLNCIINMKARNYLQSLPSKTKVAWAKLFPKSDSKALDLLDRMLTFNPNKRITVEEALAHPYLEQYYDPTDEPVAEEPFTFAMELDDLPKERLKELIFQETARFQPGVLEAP
# [11] = system: mdx lumbrical muscle; assay: Ex vivo mdx lumbrical muscle contraction, calcium and clots; design: species or system mouse
# Method: Intracellular calcium quantification and isometric injury were described previously ([31]). Lumbrical muscles were transferred to a custom-built chamber and mounted horizontally to a force transducer (model 400A, Aurora Scientific) at 25°C. Sarcomere length was adjusted to 2.5 μm by microscope. Contraction was elicited with 0.2-millisecond stimuli and injury via 1-second stimuli at 125 Hz.
# For fluorescence experiments, a 75W xenon lamp was used with wavelengths selected using a diffraction grating monochromator (model DeltaRAM, Photon Technology International). Muscles were loaded with mag-fura-2 AM (10 μM in Tyrode) for 30 minutes at 25°C, excited at 344 and 375 nm (bandwidth 10 nm), and passed through a 510 nm emission filter (bandwidth 40 nm). Fluorescence responses were recorded alternately during 32 twitch contractions at 20-second intervals; background fluorescence was subtracted, and the response was averaged. High-affinity fura-2 was used to detect membrane breaches between tetanic contractions. Muscles were incubated with fura-2 AM (15 μM in Tyrode) for 30 minutes before 12 injurious contractions, separated by 1 minute with (10/s) alternating excitation wavelengths of 340 and 375 nm (bandwidth 1.25 nm) with a 510 nm emission filter (bandwidth 40 nm) and preloading background subtraction. Still and video images were captured using a digital camera (Nikon D750).
# [12] = molecular target: T11, AXL (Homo sapiens, UniProt P30530); assay: KINOMEscan scanEDGE; assay type: binding; settings: 20 uM
# T11 construct: purchased Eurofins DiscoverX (KINOMEscan; SAFETYscan E/IC50 ELECT)
# [13] = molecular target: T12, JAK3(JH1domain-catalytic) (Homo sapiens, UniProt P52333); assay: KINOMEscan scanEDGE; assay type: binding; settings: 20 uM
# T12 construct: JAK3(JH1domain-catalytic); purchased Eurofins DiscoverX (KINOMEscan; SAFETYscan E/IC50 ELECT)
# [14] = system: mixed fast/slow mouse soleus muscle; assay: Ex vivo isometric force, mouse soleus; settings: 31% type I, 60% type IIa/IIx
# Method: Isometric force was measured ex vivo in mouse EDL and soleus muscle. EDL muscle eccentric injury was based on published protocols ([30]), with degree of lengthening and stimulation modified to yield a uniform drop in mdx isometric and peak force over 10 contractions. After isolation, muscle was mounted via 5-0 suture to a combination servomotor/force transducer (300C-LR, Aurora) between 2 electrodes connected to a stimulator (701C, Aurora) in Ringers solution at 27°C with continuously infused CO2/O2 gas mixture. Experiments were recorded with custom MATLAB software via a National Instruments PCIe-6321 board and 2090A BNC connector. Muscles were preincubated for 60 minutes with DMSO (final 0.1%)/compound before 10 eccentric contractions, 1 minute apart, with 100 milliseconds of isometric stimulation at 100 Hz and active lengthening of 0.1 L0 at a rate of 2 L0/s. After lengthening, muscles were held at 1.1 L0 with stimulation for 100 milliseconds (Supplemental Figure 2A).
# [15] = molecular target: T13, PIK3CG (Homo sapiens, UniProt P48736); assay: KINOMEscan scanEDGE; assay type: binding; settings: 20 uM
# T13 construct: purchased Eurofins DiscoverX (KINOMEscan; SAFETYscan E/IC50 ELECT)
# [16] = molecular target: T14, PIK3CA (Homo sapiens, UniProt P42336); assay: KINOMEscan scanEDGE; assay type: binding; settings: 20 uM
# T14 construct: purchased Eurofins DiscoverX (KINOMEscan; SAFETYscan E/IC50 ELECT)
# T14 sequence (P42336 whole entry): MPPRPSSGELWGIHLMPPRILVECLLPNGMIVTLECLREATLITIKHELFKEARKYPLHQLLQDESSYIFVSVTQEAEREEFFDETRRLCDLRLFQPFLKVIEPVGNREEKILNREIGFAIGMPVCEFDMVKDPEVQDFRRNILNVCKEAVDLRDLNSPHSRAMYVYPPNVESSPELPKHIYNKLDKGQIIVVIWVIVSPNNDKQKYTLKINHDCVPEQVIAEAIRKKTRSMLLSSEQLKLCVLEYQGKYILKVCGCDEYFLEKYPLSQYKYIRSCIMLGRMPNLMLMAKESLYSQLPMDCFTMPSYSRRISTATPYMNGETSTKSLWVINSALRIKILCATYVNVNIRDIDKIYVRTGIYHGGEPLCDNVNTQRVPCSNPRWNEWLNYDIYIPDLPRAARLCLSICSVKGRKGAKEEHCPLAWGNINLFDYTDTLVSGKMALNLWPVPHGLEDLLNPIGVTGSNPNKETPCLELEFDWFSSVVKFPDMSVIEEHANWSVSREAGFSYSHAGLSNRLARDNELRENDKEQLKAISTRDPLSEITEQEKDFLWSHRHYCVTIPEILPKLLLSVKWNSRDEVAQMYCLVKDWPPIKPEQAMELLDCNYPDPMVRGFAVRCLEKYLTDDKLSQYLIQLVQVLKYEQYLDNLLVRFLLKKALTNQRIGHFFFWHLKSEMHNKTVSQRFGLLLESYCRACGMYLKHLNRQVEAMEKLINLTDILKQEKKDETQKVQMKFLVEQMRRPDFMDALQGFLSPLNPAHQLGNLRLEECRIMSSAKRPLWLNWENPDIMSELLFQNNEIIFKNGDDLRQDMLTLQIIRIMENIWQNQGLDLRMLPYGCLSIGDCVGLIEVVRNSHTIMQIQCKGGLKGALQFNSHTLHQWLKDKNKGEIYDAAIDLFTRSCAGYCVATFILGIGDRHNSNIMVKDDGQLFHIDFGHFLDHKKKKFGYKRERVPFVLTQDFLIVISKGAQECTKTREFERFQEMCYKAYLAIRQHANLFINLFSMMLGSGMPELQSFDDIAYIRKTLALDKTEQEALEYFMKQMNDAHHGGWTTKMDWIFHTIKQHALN
# [17] = molecular target: T15, IKK-alpha (Homo sapiens, UniProt O15111); assay: KINOMEscan scanEDGE; assay type: binding; settings: 20 uM
# T15 construct: purchased Eurofins DiscoverX (KINOMEscan; SAFETYscan E/IC50 ELECT)
# [18] = molecular target: T16, FLT3 (Homo sapiens, UniProt P36888); assay: KINOMEscan scanEDGE; assay type: binding; settings: 20 uM
# T16 construct: purchased Eurofins DiscoverX (KINOMEscan; SAFETYscan E/IC50 ELECT)
# [19] = molecular target: T17, CDK2 (Homo sapiens, UniProt P24941); assay: KINOMEscan scanEDGE; assay type: binding; settings: 20 uM
# T17 construct: purchased Eurofins DiscoverX (KINOMEscan; SAFETYscan E/IC50 ELECT)
# [20] = read-out: Max Response (%) (Agonist)
# [21] = read-out: Max Response (%) (Antagonist)
compound,measurement,setting,value
O=c1ccc(-c2cnc(OCC(F)(F)F)nc2)nn1Cc1cncc(F)c1 [EDG-5506],"binding, % of control",[1],89 % of control
same,Emax,[2]; [20],0%
same,Emax,[2]; [21],0%
same,Emax,[3]; [20],0.36%
same,Emax,[3]; [21],8.58%
same,Emax,[4],26.5%
same,Emax,[5],2.32%
same,Emax,[6]; [20],0%
same,Emax,[6]; [21],18.6%
same,Emax,[7],13.1%
same,Emax,[8]; [20],0%
same,Emax,[8]; [21],0%
same,"binding, % of control",[9],82 % of control
same,"binding, % of control",[10],100 % of control
same,reduction of specific tension before injury,[11]; 0.3 μM,15%
same,strength drop with contraction,[11]; mdx lumbrical,completely prevented
same,clot formation (hypercontraction),"[11]; mdx lumbrical, after 12 contractions",completely prevented clot formation
same,concentration of maximal efficacy,"[11]; mdx lumbrical, repeated tetanic contraction",0.3 µM
same,"binding, % of control",[12],92 % of control
same,"binding, % of control",[13],100 % of control
same,ex vivo force inhibition,[14],partial force inhibition
same,"binding, % of control",[15],100 % of control
same,"binding, % of control",[16],100 % of control
same,"binding, % of control",[17],93 % of control
same,"binding, % of control",[18],89 % of control
same,"binding, % of control",[19],100 % of control
